Usually Km stands for the substrate concentration at which the rate is half of its maximum.

Numbered stars: 1 amine (or outer) side, 2 acyl side, 3 side chain; on linkers, the order of the positions; unused ones are H or OH. Peptide text beside a SMILES is read from it. * marks the point of attachment. pNA = O=[N+]([O-])c1ccc(N*)cc1; Suc = O=C(CCC(=O)[*:2])[*:1]; Cbz = O=C(OCc1ccccc1)*

For this test, the system named is P. gingivalis DPP-7. The experiment in a line: Kinetic analysis of p-nitroanilide substrate cleavage by DPP-7. The format is biochemical, Porphyromonas gingivalis. The conditions noted are these: for hydrolysis of chromogenic substrate by DPP-7: p-nitroanilide substrates. Here is the method:
Kinetic Analysis—Routinely, the dipeptidylpeptidase amidolytic activity was measured with H-Ala-Phe-pNA (1 mM) in 0.2 M HEPES, pH 7.8 at 37° C. The reaction was followed for specific time intervals in a thermostated ELISA reader (SpectraMax, Applied Biosystem) and the release of p-nitroaniline was monitored at 405 nm. Other p-nitroanilide substrates were used in the same manner. For inhibition studies, the enzyme was first preincubated with an inhibitor for 15 minutes at 37° C., substrate added, and residual activity recorded. The initial steady-state velocity (v0) was determined by continuous assay for the range of substrate concentrations (100 nM to 1 mM). Km and Vmax were determined by hyperbolic regression of the kinetic data using the software package Hyper Version 1.02 obtained from Dr. J. S. Easterby (University of Liverpool, UK).
Substrate Specificity—Among several chromogenic substrates tested, only those with an aliphatic or an aromatic side chain residues in the second, penultimate position were rapidly hydrolyzed by DPP-7 (Table 2).

For the compound `CC(C)[C@H](NC(=O)[C@H](Cc1ccccc1)NC(=O)OCc1ccccc1)C(=O)N[C@@H](CCCNC(=N)N)C(=O)Nc1ccc([N+](=O)[O-])cc1` [Z-Phe-Val-Arg-pNA] (Cbz-Phe-Val-Arg-pNA), the “hydrolysis of chromogenic substrate by DPP-7” value (shortened to “hydrolysis”) is on record as “none of these was hydrolysed”.

Consider `C[C@H](NC(=O)OCc1ccccc1)C(=O)N[C@@H](C)C(=O)Nc1ccc([N+](=O)[O-])cc1` [Z-Ala-Ala-pNA] (Cbz-Ala-Ala-pNA), for which the “hydrolysis” value is recorded as “none of these was hydrolysed”. Same read-out and setting: the value for `C[C@H](N)C(=O)N1CCC[C@H]1C(=O)Nc1ccc([N+](=O)[O-])cc1` [H-Ala-Pro-pNA] (H-Ala-Pro-pNA) was “none of these was hydrolysed”. Still for that read-out and setting: the value for `C[C@H](N)C(=O)N[C@@H](C)C(=O)N[C@@H](Cc1ccccc1)C(=O)Nc1ccc([N+](=O)[O-])cc1` [H-Ala-Ala-Phe-pNA] (H-Ala-Ala-Phe-pNA) was “none of these was hydrolysed”; that for `Br.Br.NCCCC[C@H](N)C(=O)Nc1ccc([N+](=O)[O-])cc1` [H-Lys-pNA] was “none of these was hydrolysed”; that for `CC(C)[C@H](NC(=O)[C@H](C)NC(=O)[C@H](C)NC(=O)CCC(=O)O)C(=O)N[C@@H](C)C(=O)Nc1ccc([N+](=O)[O-])cc1` [N-suc-Ala-Ala-Val-Ala-pNA] (Suc-AAVA-pNA) was “none of these was hydrolysed”.

Turning to `C[C@H](N)C(=O)Nc1ccc([N+](=O)[O-])cc1` [H-Ala-pNA], the “hydrolysis” value was “none of these was hydrolysed”.

For the compound `CC(N)C(=O)NC(C)C(=O)Nc1ccc([N+](=O)[O-])cc1.Cl` (stereo not drawn) [H-Ala-Ala-pNA] (H-Ala-Ala-pNA; configuration not given here), for the setting “0.2 M HEPES, pH 7.8, 37° C.”, the Km is 313 µM and the Vmax is given as 129.65.

Consider `NCCCC[C@H](NC(=O)[C@H](Cc1ccc(O)cc1)NC(=O)OCc1ccccc1)C(=O)N[C@@H](CCCN=C(N)N)C(=O)Nc1ccc([N+](=O)[O-])cc1` [Z-Tyr-Lys-Arg-pNA] (Cbz-Tyr-Lys-Arg-pNA), for which the “hydrolysis” value is reported as “none of these was hydrolysed”. The same measure, in the same setting: under N-met-Ala-Pro-Val-pNA stands “none of these was hydrolysed”; under `NCC(=O)N[C@@H](CCC(=O)O)C(=O)Nc1ccc([N+](=O)[O-])cc1` [H-Gly-Glu-pNA] (H-Gly-Glu-pNA), “none of these was hydrolysed”; under `CC(C)C[C@H](NC(=O)OCc1ccccc1)C(=O)N[C@@H](CC(C)C)C(=O)N[C@@H](CCC(=O)O)C(=O)Nc1ccc([N+](=O)[O-])cc1` [Z-Leu-Leu-Glu-pNA] (Cbz-Leu-Leu-Glu-pNA), “none of these was hydrolysed”. Same read-out and setting: under `NCCCC[C@H](NC(=O)CN)C(=O)Nc1ccc([N+](=O)[O-])cc1` [H-Gly-Lys-pNA] (H-Gly-Lys-pNA) stands “none of these was hydrolysed”; under `O=C(O)CC[C@H](NC(=O)OCc1ccccc1)C(=O)N[C@@H](CCC(=O)O)C(=O)Nc1ccc([N+](=O)[O-])cc1` [Z-Glu-Glu-pNA] (Cbz-Glu-Glu-pNA), “none of these was hydrolysed”. Same read-out and setting: under `N=C(N)NCCC[C@H](NC(=O)[C@H](CCCCN)NC(=O)OCc1ccccc1)C(=O)Nc1ccc([N+](=O)[O-])cc1` [Z-Lys-Arg-pNA] (Cbz-Lys-Arg-pNA) stands “none of these was hydrolysed”; under `C[C@H](N)C(=O)NCC(=O)Nc1ccc([N+](=O)[O-])cc1` [H-Ala-Gly-pNA] (H-Ala-Gly-pNA), “none of these was hydrolysed”; under `CC(C)C[C@H](N)C(=O)Nc1ccc([N+](=O)[O-])cc1` [H-Leu-pNA], “none of these was hydrolysed”. `CC[C@H](C)[C@H](N)C(=O)Nc1ccc([N+](=O)[O-])cc1` [H-Ile-pNA]: the “hydrolysis” value was “none of these was hydrolysed”. Turning to `NCC(=O)NCC(=O)Nc1ccc([N+](=O)[O-])cc1` [H-Gly-Gly-pNA] (H-Gly-Gly-pNA), the “hydrolysis” value is “none of these was hydrolysed”.

The record behind these values is patent US6864363B2 (priority 2000, dated 2005).
